Among the targets are D(2) dopamine receptor (Rattus norvegicus, UniProt P61169); D(1A) dopamine receptor (Rattus norvegicus, UniProt P18901); Histamine H1 receptor (Rattus norvegicus, UniProt P31390).
Experiment [1] has as its target 5-hydroxytryptamine receptor 2A (Rattus norvegicus, UniProt P14842).
Experiment [2] addresses 5-hydroxytryptamine receptor 1B (Rattus norvegicus, UniProt P28564).
Experiment [3] deals with T1, Alpha-1A adrenergic receptor (Rattus norvegicus, UniProt P43140).
T1 sequence (P43140 whole entry): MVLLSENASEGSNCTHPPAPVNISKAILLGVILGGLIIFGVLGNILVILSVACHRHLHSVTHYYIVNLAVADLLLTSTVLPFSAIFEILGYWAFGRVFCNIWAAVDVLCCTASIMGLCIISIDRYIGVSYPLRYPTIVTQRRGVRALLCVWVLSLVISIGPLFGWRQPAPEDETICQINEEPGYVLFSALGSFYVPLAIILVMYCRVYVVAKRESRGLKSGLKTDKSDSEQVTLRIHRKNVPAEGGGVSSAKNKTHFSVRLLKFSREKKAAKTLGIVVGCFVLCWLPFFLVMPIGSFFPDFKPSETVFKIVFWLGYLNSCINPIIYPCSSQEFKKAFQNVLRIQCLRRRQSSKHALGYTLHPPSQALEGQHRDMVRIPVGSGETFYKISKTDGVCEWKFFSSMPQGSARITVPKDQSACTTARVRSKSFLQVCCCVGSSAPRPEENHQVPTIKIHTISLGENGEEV

In experiment [4] the target is T2, 5-hydroxytryptamine receptor 2C (Rattus norvegicus, UniProt P08909).
T2 sequence (P08909 whole entry): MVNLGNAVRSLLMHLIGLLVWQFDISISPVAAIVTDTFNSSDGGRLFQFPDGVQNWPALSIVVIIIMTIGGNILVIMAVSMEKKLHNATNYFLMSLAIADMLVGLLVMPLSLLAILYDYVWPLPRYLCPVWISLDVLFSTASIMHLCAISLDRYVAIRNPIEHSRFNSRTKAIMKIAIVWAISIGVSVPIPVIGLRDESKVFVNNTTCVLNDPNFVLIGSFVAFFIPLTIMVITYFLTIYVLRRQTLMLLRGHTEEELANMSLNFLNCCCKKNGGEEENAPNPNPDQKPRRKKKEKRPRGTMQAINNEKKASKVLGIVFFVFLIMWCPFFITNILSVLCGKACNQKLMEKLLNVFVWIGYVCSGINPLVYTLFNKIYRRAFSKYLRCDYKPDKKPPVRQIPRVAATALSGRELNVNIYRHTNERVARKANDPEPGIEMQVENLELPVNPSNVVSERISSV

The target in experiment [5] is Gamma-aminobutyric acid receptor subunit alpha-1 (Rattus norvegicus, UniProt P62813).
Gamma-aminobutyric acid receptor subunit alpha-1, sequence (P62813 whole entry): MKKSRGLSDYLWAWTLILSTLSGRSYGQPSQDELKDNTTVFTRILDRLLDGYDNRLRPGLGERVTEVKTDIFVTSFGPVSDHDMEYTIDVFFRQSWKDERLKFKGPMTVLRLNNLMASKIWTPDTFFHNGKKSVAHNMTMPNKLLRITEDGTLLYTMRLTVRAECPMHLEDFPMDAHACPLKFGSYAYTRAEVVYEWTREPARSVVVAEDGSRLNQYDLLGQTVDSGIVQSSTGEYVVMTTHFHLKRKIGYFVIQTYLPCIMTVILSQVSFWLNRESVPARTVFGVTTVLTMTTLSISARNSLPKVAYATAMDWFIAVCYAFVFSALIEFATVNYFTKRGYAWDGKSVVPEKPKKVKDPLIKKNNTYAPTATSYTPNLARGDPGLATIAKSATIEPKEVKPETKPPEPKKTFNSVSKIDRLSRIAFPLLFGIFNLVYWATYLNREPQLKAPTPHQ
Experiment [6] has as its target 5-hydroxytryptamine receptor 1D (Rattus norvegicus, UniProt P28565).
Experiment [7] addresses T3, 5-hydroxytryptamine receptor 3A (Rattus norvegicus, UniProt P35563).
T3 sequence (P35563 whole entry): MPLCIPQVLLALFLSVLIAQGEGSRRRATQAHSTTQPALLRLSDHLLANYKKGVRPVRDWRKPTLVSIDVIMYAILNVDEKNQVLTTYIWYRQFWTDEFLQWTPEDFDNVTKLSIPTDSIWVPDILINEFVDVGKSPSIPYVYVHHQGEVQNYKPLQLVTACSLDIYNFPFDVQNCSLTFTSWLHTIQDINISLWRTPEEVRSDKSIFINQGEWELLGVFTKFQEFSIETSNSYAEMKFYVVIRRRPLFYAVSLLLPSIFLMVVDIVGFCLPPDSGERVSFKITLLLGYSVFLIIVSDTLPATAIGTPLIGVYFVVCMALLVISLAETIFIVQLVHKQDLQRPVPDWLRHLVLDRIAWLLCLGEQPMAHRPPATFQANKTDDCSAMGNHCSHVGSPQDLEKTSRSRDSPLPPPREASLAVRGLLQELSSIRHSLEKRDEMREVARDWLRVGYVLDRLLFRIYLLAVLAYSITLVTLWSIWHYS

Experiment [8] addresses T4, Alpha-2C adrenergic receptor (Rattus norvegicus, UniProt P22086).
T4 sequence (P22086 whole entry): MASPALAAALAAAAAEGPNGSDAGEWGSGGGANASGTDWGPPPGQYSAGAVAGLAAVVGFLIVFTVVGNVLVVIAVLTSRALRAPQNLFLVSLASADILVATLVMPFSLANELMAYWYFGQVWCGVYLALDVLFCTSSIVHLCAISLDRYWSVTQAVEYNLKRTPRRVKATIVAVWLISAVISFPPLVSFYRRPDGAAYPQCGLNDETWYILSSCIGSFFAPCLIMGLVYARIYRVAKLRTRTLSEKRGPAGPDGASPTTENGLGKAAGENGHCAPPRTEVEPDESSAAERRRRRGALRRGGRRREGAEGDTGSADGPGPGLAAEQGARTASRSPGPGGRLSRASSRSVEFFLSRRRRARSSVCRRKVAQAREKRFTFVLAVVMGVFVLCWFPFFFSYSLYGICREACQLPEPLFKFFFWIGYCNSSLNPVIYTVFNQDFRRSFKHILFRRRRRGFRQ

Experiment [9] deals with T5, Muscarinic acetylcholine receptor M2 (Rattus norvegicus, UniProt P10980).
T5 sequence (P10980 whole entry): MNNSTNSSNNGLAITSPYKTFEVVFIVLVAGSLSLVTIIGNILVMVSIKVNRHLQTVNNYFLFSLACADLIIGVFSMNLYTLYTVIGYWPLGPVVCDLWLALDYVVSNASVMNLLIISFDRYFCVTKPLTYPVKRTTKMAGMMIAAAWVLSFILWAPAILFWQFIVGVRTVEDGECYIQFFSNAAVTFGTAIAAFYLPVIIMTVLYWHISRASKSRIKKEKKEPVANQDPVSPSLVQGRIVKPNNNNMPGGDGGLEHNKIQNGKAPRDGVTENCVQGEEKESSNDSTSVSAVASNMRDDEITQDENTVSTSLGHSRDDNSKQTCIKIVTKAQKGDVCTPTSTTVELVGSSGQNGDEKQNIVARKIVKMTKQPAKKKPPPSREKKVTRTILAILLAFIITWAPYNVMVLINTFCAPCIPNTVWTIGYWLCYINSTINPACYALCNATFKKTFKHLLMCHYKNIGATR

For experiment [10], the target named is Beta-2 adrenergic receptor (Rattus norvegicus, UniProt P10608).
Beta-2 adrenergic receptor, sequence (P10608 whole entry): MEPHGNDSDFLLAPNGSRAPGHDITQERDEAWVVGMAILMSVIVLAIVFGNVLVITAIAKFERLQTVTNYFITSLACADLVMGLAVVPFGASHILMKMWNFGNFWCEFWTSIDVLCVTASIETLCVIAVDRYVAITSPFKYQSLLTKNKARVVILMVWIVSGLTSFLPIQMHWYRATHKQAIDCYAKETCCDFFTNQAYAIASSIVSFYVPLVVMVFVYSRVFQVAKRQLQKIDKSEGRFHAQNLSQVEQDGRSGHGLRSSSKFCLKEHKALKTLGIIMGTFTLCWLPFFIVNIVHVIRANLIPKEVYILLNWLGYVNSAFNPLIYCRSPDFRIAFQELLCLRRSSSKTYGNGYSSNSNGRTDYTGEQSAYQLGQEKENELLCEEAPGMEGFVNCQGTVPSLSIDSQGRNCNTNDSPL

As usually defined, the Ki is the equilibrium dissociation constant of an inhibitor or competing ligand from its target. The low end stands for higher affinity, the high end for lower affinity.

D(2) dopamine receptor, sequence (P61169 whole entry): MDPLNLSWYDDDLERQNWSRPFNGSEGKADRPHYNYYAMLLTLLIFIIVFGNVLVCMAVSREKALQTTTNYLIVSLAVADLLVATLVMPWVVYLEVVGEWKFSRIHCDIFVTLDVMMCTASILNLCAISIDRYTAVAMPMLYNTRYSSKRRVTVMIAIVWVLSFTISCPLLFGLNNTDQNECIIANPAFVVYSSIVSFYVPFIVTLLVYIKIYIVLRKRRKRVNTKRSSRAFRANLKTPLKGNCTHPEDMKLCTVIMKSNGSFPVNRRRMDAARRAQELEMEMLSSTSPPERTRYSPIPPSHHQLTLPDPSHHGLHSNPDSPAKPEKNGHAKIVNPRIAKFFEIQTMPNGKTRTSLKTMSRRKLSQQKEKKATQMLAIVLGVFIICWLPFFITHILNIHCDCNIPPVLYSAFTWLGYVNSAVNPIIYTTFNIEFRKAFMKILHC
5-hydroxytryptamine receptor 1B, sequence (P28564 whole entry): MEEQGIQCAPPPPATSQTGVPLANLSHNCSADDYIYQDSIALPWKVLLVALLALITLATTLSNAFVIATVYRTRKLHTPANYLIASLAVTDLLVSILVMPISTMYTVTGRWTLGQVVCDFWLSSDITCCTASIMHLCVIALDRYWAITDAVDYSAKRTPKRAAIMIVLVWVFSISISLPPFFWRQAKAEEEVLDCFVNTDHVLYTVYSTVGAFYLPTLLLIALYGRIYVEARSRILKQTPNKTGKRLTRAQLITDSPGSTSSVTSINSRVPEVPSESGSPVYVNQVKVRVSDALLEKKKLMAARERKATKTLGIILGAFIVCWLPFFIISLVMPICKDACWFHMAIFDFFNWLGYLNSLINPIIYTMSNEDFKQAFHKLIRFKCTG
Histamine H1 receptor, sequence (P31390 whole entry): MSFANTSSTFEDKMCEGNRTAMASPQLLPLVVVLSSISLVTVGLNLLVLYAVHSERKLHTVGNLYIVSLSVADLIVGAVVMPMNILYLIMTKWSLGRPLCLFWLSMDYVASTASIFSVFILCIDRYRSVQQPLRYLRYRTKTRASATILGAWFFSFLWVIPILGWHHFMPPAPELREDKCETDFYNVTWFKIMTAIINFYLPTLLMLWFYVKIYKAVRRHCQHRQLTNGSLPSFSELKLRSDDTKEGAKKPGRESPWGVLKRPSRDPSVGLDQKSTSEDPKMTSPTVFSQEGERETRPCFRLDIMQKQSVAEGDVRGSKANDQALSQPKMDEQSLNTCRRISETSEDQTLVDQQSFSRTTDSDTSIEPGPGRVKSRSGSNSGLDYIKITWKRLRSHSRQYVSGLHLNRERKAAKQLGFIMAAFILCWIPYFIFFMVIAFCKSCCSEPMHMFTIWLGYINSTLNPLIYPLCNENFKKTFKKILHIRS
5-hydroxytryptamine receptor 1D, sequence (P28565 whole entry): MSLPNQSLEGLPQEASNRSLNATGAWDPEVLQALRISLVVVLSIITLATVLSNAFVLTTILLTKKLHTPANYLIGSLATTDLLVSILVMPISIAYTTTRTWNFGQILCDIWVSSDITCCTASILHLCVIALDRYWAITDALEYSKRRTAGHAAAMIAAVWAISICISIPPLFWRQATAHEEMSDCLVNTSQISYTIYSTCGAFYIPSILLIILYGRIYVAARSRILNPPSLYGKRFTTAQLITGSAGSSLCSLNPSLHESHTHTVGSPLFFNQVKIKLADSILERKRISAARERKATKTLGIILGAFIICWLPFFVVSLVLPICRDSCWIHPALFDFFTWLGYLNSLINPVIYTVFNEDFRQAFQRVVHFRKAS
D(1A) dopamine receptor, sequence (P18901 whole entry): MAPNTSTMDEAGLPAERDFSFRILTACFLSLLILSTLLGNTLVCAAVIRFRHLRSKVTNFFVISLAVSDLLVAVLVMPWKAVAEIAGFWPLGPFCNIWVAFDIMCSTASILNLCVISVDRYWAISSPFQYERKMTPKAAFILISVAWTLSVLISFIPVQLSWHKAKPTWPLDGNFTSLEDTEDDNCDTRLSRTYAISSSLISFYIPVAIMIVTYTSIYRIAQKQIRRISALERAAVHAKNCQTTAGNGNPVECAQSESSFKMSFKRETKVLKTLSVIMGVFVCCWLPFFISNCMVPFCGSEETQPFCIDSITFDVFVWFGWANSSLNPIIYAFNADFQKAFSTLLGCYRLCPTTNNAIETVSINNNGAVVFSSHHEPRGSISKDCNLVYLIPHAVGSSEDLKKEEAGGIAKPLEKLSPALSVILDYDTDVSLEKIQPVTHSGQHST
5-hydroxytryptamine receptor 2A, sequence (P14842 whole entry): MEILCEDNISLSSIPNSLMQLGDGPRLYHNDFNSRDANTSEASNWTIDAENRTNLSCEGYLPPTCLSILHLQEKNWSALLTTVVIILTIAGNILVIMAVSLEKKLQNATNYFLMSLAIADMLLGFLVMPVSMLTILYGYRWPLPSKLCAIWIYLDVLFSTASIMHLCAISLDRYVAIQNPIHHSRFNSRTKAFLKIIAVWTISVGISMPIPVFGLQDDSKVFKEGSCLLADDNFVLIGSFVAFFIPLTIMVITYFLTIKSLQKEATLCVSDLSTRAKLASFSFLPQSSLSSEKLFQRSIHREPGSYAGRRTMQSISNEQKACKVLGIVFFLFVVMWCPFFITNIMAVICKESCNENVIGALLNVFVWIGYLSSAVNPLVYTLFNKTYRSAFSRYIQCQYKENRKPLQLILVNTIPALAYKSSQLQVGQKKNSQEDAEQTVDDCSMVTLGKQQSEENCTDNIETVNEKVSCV

For the molecule `CCCN(CCC)C1Cc2c[nH]c3ccc(C(C)=O)c(c23)C1` (stereo not drawn) [LY-293384], the Ki (in [1]; at D(2) dopamine receptor; in [2]; in [3]; in [4]; in experiment [5]) was 1000 nM in each case. Also, the Ki in [6] turned out to be 66.9 nM; in experiment [7] it was 1000 nM; in experiment [8] it was 1000 nM; in experiment [9], 1000 nM; on D(1A) dopamine receptor, 1000 nM; at Histamine H1 receptor it was 1000 nM. The Ki in experiment [10] was 1000 nM.

These data come from BindingDB's records for PubMed 7523657 (Eli Lilly, 1994).
